# From patent publication US5183893A, “1-azabicycloalkane derivatives, their preparation process and their use as medicaments” (Roussel Uclaf, priority 1988, dated 1993)
# Structures can show the parent of a compound that is named as a salt. Where two headings read alike, the source gives them in different places.
# Assays:
# [1] = test system: male mice (CD1 Charles Rivers); experiment: Hypothermic activity; assay type: in vivo; settings: for ED (-1 C body temperature): Mus musculus, read-out: Effective dose (-1° C.)
# Procedure: The test is carried out on male mice (CD1 Charles Rivers) weighing 25 to 30 g, and without food for 6 hours.
# The body temperature is noted using a thermocouple placed in the rectum to about 1.5 cm and connected to an electrical temperature recorder. […]
# The degree of hypothermia is evaluated as the difference between the treated animals and the control animals and the dose necessary to reduce the body temperature by 1° C. is determined.
# The duration of action of the products is determined by using doses capable of reducing the temperature by 1° to 1.2° C.
# [2] = test system: isolated ileum of a guinea-pig; experiment: Test on the isolated ileum of a guinea-pig (agonist activity); assay type: cell-based; settings: Cavia porcellus, read-out: pD2 (negative logarithm of the dose which produces 50% of the maximum effect) (converted)
# Procedure: Pieces of ileum are removed from guinea-pigs which have been killed by decapitation. The isolated ileum is placed in 10 cm^3 of Tyrode's solution at 37° C. and aerated by a mixture of oxygen (95%) and carbon dioxide (5%). The contractions due to the products are recorded using a sensor connected to a polygraph. The products being tested are added, in concentrations comprised between 1.10^-3 M and 1.10^-8 M/1.
# The products presenting a contracting effect are tested vis-a-vis atropine and hexamethonium to establish if the activity is of "muscarinic" or "nicotinic" type.
# The agonist activity is expressed in pD2 (negative logarithm of the dose which produces 50% of the maximum effect).
# Diarrheic activity = experiment: Diarrheic activity; design: species or system mice; settings: mouse, in vivo
# Procedure: The test is carried out on male mice (CD1 Charles Rivers) weighing 25 to 30 g, and without food for 6 hours. The product, dissolved at 5% in methocel, is administered by oral route, using an oesophagus probe.
# Control animals receive only the excipient (20 ml/kg).
# After treatment, the animals are put separately into cages, the bottom of which is covered with absorbent paper, and are observed for 30, 60, 120 and 180 minutes.
# The absorbent sheets of paper are changed after each observation.
# The consistency of the faeces is evaluated according to the Randall and Baruth method (Arch. Int. Pharmacodyn., 220, 94, 1976) in accordance with the following scale of values.
# 1: slightly soft faeces with or without a damp ring,
# 2: slightly soft faeces with presence of a well-defined damp ring,
# 3: soft faeces with presence of a large damp ring,
# 4: faeces without consistency with presence of a very large camp ring.
# For each product, the dose has been noted which cause diarrohea in 50% of the animals according to the Miller and Tainter method (Proc. Soc. Exp. Biol. Med., 57, 261, 1944).
# [3] = Acute toxicity (mortality during 7 days, oral); settings: mouse, in vivo, male CD1 mice, fasted 16 hours, mortality noted during 7 days
# Procedure: The test is carried out on male mice (CD1 Charles Rivers) weighing 22 to 24 g, which have gone without food for 16 hours. The products are administered by oral route at a dose of 1000, 500, 250, 125, 62, 31 and 16 mg/kg. The mortality is noted during the 7 days following the treatment.
# [4] = sc, sub-cutaneous route, dose necessary to reduce body temperature by 1° C.
# [5] = oral route, dose necessary to reduce body temperature by 1° C.
# [6] = isolated guinea-pig ileum, contraction, Tyrode's solution at 37° C.
compound,measurement,setting,value
"CC(=O)OC1CN2CCC1CC2 (stereo not shown) [Aceclidine, HCl]",duration of action: body temperature difference from controls,"[1]; 2.50 mg/kg sub-cutaneous, 30 min",-1.0 °C
same,duration of action: body temperature difference from controls,"[1]; 2.50 mg/kg sub-cutaneous, 60 min",-0.1 °C
same,duration of action: body temperature difference from controls,"[1]; 2.50 mg/kg sub-cutaneous, 120 min",+0.1 °C
same,duration of action: body temperature difference from controls,"[1]; 2.50 mg/kg sub-cutaneous, 180 min",+0.1 °C
same,duration of action: body temperature difference from controls,"[1]; 7.50 mg/kg oral, 30 min",-1.1 °C
same,duration of action: body temperature difference from controls,"[1]; 7.50 mg/kg oral, 60 min",-0.3 °C
same,duration of action: body temperature difference from controls,"[1]; 7.50 mg/kg oral, 180 min",+0.1 °C
same,ED (-1 C body temperature),[1]; po,6.4 mg/kg
same,ED (-1 C body temperature),[1]; sc,2.1 mg/kg
same,EC50,[2],105 nM
same,ED50 at 3 h,"Diarrheic activity; male CD1 mice, fasted 6 hours, oral, observed up to 180 minutes, read-out: ED50 (dose which causes diarrhoea in 50% of the animals)",4 mg/kg
same,LD50 at 168 h,[3],250 mg/kg
"CON=CC1CN2CCC1CC2 (stereo not shown) [Example 1, 1-azabicyclo-[2,2,2]-octan-3-carboxaldehyde O-methyloxime]",duration of action: body temperature difference from controls,"[1]; 0.25 mg/kg oral, 30 min",-1.1 °C
same,duration of action: body temperature difference from controls,"[1]; 0.25 mg/kg oral, 60 min",-1.0 °C
same,duration of action: body temperature difference from controls,"[1]; 0.25 mg/kg sub-cutaneous, 30 min",-1.2 °C
same,duration of action: body temperature difference from controls,"[1]; 0.25 mg/kg sub-cutaneous, 60 min",-1.1 °C
same,ED (-1 C body temperature),[1]; [4],0.18 mg/kg
same,ED (-1 C body temperature),[1]; [5],0.19 mg/kg
same,EC50,[2]; [6],50.1 nM
same,ED50 at 3 h,Diarrheic activity; po,1.1 mg/kg
same,LD50 at 168 h,[3],30 mg/kg
"CCON=CC1CN2CCC1CC2 (stereo not shown) [Example 2, 1-azabicyclo-[2,2,2]-octan-3-carboxaldehyde O-ethyloxime]",LD50 at 168 h,[3],150 mg/kg
"C#CCON=CC1CN2CCC1CC2 (stereo not shown) [Example 3, 1-azabicyclo-[2,2,2]-octan-3-carboxaldehyde O-2-propynyloxime]",LD50 at 168 h,[3],40 mg/kg
"CON=C(C)C1CN2CCC1CC2 (stereo not shown) [Example 4, (1-azabicyclo-[2,2,2]-octan-3-yl)-ethanone O-methyloxime hydrochloride]",ED (-1 C body temperature),[1]; [4],0.33 mg/kg
same,ED (-1 C body temperature),[1]; [5],0.33 mg/kg
same,EC50,[2]; [6],95.5 nM
same,ED50 at 3 h,Diarrheic activity; po,3 mg/kg
same,LD50 at 168 h,[3],75 mg/kg
